Values after ≈ are worked out from the molar mass of the structure shown.
Key:
[1] = Cytotoxicity against HEK293T cells assessed as reduction in cell viability after 48 hrs by MTS assay; type: cell-based, HEK-293T; settings: human
Pseudomonas aeruginosa [2] = assay: Antibacterial activity against Pseudomonas aeruginosa ATCC 27853 after 18 hrs by CLSI broth microdilution method; type: functional; settings: ATCC 27853, 18 h
Escherichia coli [3] = assay: Antibacterial activity against extended-spectrum beta-lactamase harboring Escherichia coli 12-15 after 18 hrs by CLSI broth microdilution method; type: functional; settings: 12-15, 18 h
Klebsiella aerogenes = assay: Antibacterial activity against Enterobacter aerogenes ATCC 13048 after 18 hrs by CLSI broth microdilution method; type: functional; settings: ATCC 13048, 18 h
Escherichia coli [4] = assay: Antibacterial activity against extended-spectrum beta-lactamase deficient Escherichia coli ATCC 25922 after 18 hrs by CLSI broth microdilution method; type: functional; settings: ATCC 25922, 18 h
Klebsiella pneumoniae [5] = assay: Antibacterial activity against extended-spectrum beta-lactamase deficient Klebsiella pneumoniae 7 after 18 hrs by CLSI broth microdilution method; type: functional; settings: Klebsiella pneumoniae, 7, 18 h
Staphylococcus aureus [6] = assay: Antibacterial activity against methicillin-sensitive Staphylococcus aureus ATCC 29213 after 18 hrs by CLSI broth microdilution method; type: functional; settings: ATCC 29213, 18 h
[7] = test system: Staphylococcus epidermidis; assay: Antibacterial activity against methicillin-resistant Staphylococcus epidermidis 12-8 after 18 hrs by CLSI broth microdilution method; type: functional; settings: 12-8, 18 h
Enterococcus faecium [8] = assay: Antibacterial activity against vancomycin-resistant Enterococcus faecium 12-1 after 18 hrs by CLSI broth microdilution method; type: functional; settings: 12-1, 18 h
Klebsiella pneumoniae [9] = assay: Antibacterial activity against extended-spectrum beta-lactamase harboring Klebsiella pneumoniae ATCC 700603 after 18 hrs by CLSI broth microdilution method; type: functional; settings: Klebsiella pneumoniae, 700603, 18 h
Providencia rettgeri = assay: Antibacterial activity against Providencia rettgeri ATCC 31052 after 18 hrs by CLSI broth microdilution method; type: functional; settings: ATCC 31052, 18 h
Proteus vulgaris = assay: Antibacterial activity against Proteus vulgaris ATCC 29905 after 18 hrs by CLSI broth microdilution method; type: functional; settings: ATCC 29905, 18 h
Staphylococcus aureus [10] = assay: Antibacterial activity against methicillin-sensitive Staphylococcus aureus 12-28 after 18 hrs by CLSI broth microdilution method; type: functional; settings: 12-28, 18 h
Pseudomonas aeruginosa [11] = assay: Antibacterial activity against Pseudomonas aeruginosa 12-16 after 18 hrs by CLSI broth microdilution method; type: functional; settings: 12-16, 18 h
[12] = test system: Acinetobacter calcoaceticus; assay: Antibacterial activity against Acinetobacter calcoaceticus ATCC 19606 after 18 hrs by CLSI broth microdilution method; type: functional; settings: ATCC 19606, 18 h
Pseudomonas aeruginosa [13] = assay: Antibacterial activity against Pseudomonas aeruginosa PAO1 after 18 hrs by CLSI broth microdilution method; type: functional; settings: PAO1, 18 h
[14] = test system: Staphylococcus epidermidis; assay: Antibacterial activity against methicillin-sensitive Staphylococcus epidermidis 12-6 after 18 hrs by CLSI broth microdilution method; type: functional; settings: 12-6, 18 h
Staphylococcus aureus [15] = assay: Antibacterial activity against methicillin-sensitive Staphylococcus aureus 15 after 18 hrs by CLSI broth microdilution method; type: functional; settings: Staphylococcus aureus, 15, 18 h
[16] = test system: Staphylococcus epidermidis; assay: Antibacterial activity against methicillin-sensitive Staphylococcus epidermidis ATCC 12228 after 18 hrs by CLSI broth microdilution method; type: functional; settings: ATCC 12228, 18 h
Enterococcus faecalis [17] = assay: Antibacterial activity against vancomycin-resistant Enterococcus faecalis ATCC 51299 after 18 hrs by CLSI broth microdilution method; type: functional; settings: ATCC 51299, 18 h
Klebsiella pneumoniae [18] = assay: Antibacterial activity against extended-spectrum beta-lactamase deficient Klebsiella pneumoniae 12-4 after 18 hrs by CLSI broth microdilution method; type: functional; settings: 12-4, 18 h
Proteus mirabilis = assay: Antibacterial activity against Proteus mirabilis 12-6 after 18 hrs by CLSI broth microdilution method; type: functional; settings: 12-6, 18 h
Enterococcus faecalis [19] = assay: Antibacterial activity against vancomycin-sensitive Enterococcus faecalis ATCC 29212 after 18 hrs by CLSI broth microdilution method; type: functional; settings: ATCC 29212, 18 h
Enterococcus faecium [20] = assay: Antibacterial activity against vancomycin-sensitive Enterococcus faecium 12-3 after 18 hrs by CLSI broth microdilution method; type: functional; settings: 12-3, 18 h
Klebsiella pneumoniae [21] = assay: Antibacterial activity against new delhi metallo-beta-lactamase-1 harboring Klebsiella pneumoniae ATCC BAA-2146 after 18 hrs by CLSI broth microdilution method; type: functional; settings: ATCC BAA-2146, 18 h
Escherichia coli [22] = assay: Antibacterial activity against extended-spectrum beta-lactamase deficient Escherichia coli 1515 after 18 hrs by CLSI broth microdilution method; type: functional; settings: Escherichia coli, 1515, 18 h
Serratia marcescens = assay: Antibacterial activity against Serratia marcescens ATCC 21074 after 18 hrs by CLSI broth microdilution method; type: functional; settings: ATCC 21074, 18 h
Enterococcus faecium [23] = assay: Antibacterial activity against vancomycin-resistant Enterococcus faecium ATCC 700221 after 18 hrs by CLSI broth microdilution method; type: functional; settings: ATCC 700221, 18 h
Staphylococcus aureus [24] = assay: Antibacterial activity against methicillin-resistant Staphylococcus aureus 12-33 after 18 hrs by CLSI broth microdilution method; type: functional; settings: 12-33, 18 h
Klebsiella pneumoniae [25] = assay: Antibacterial activity against extended-spectrum beta-lactamase harboring Klebsiella pneumoniae 12-8 after 18 hrs by CLSI broth microdilution method; type: functional; settings: 12-8, 18 h
Staphylococcus aureus [26] = assay: Antibacterial activity against methicillin-resistant Staphylococcus aureus ATCC 33591 after 18 hrs by CLSI broth microdilution method; type: functional; settings: ATCC 33591, 18 h
[27] = test system: Stenotrophomonas maltophilia; assay: Antibacterial activity against Stenotrophomonas maltophilia ATCC 13636 after 18 hrs by CLSI broth microdilution method; type: functional; settings: ATCC 13636, 18 h
Enterobacter cloacae = assay: Antibacterial activity against Enterobacter cloacae ATCC 43560 after 18 hrs by CLSI broth microdilution method; type: functional; settings: ATCC 43560, 18 h
Escherichia coli [28] = assay: Antibacterial activity against extended-spectrum beta-lactamase deficient Escherichia coli 12-14 after 18 hrs by CLSI broth microdilution method; type: functional; settings: 12-14, 18 h
Citrobacter freundii = assay: Antibacterial activity against Citrobacter freundii ATCC 43864 after 18 hrs by CLSI broth microdilution method; type: functional; settings: ATCC 43864, 18 h
Enterococcus faecalis [29] = assay: Antibacterial activity against vancomycin-resistant Enterococcus faecalis 09-9 after 18 hrs by CLSI broth microdilution method; type: functional; settings: 09-9, 18 h
Enterococcus faecalis [30] = assay: Antibacterial activity against vancomycin-sensitive Enterococcus faecalis 12-5 after 18 hrs by CLSI broth microdilution method; type: functional; settings: 12-5, 18 h

| Structure (SMILES) | CC50 at 48 h [1] [µg/mL] | MIC (Pseudomonas aeruginosa [2]) [µg/mL] | MIC (Escherichia coli [3]) [µg/mL] | MIC (Klebsiella aerogenes) [µg/mL] | MIC (Escherichia coli [4]) [µg/mL] | MIC (Klebsiella pneumoniae [5]) [µg/mL] | MIC (Staphylococcus aureus [6]) [µg/mL] | MIC [7] [µg/mL] | MIC (Enterococcus faecium [8]) [µg/mL] | MIC (Klebsiella pneumoniae [9]) [µg/mL] | MIC (Providencia rettgeri) [µg/mL] | MIC (Proteus vulgaris) [µg/mL] | MIC (Staphylococcus aureus [10]) [µg/mL] | MIC (Pseudomonas aeruginosa [11]) [µg/mL] | MIC [12] [µg/mL] | MIC (Pseudomonas aeruginosa [13]) [µg/mL] | MIC [14] [µg/mL] | MIC (Staphylococcus aureus [15]) [µg/mL] | MIC [16] [µg/mL] | MIC (Enterococcus faecalis [17]) [µg/mL] | further results |
| --- | --- | --- | --- | --- | --- | --- | --- | --- | --- | --- | --- | --- | --- | --- | --- | --- | --- | --- | --- | --- | --- |
| CC(C)NC(=N)c1ccc2cc(-c3ccc(-c4cc5ccc(C(=N)NC(C)C)cc5[nH]4)cc3)[nH]c2c1 | 12.3 (≈ 25.8 µM) | 2 (≈ 4.2 µM) | 2 (≈ 4.2 µM) | 4 (≈ 8.39 µM) | 2 (≈ 4.2 µM) | 2 (≈ 4.2 µM) | 0.125 (≈ 0.262 µM) | 0.125 (≈ 0.262 µM) | 0.25 (≈ 0.525 µM) | 8 (≈ 16.8 µM) | 4 (≈ 8.39 µM) | 4 (≈ 8.39 µM) | 0.125 (≈ 0.262 µM) | 8 (≈ 16.8 µM) | 16 (≈ 33.6 µM) | 4 (≈ 8.39 µM) | 0.125 (≈ 0.262 µM) | 0.125 (≈ 0.262 µM) | 0.125 (≈ 0.262 µM) | 0.25 (≈ 0.525 µM) | MIC (Klebsiella pneumoniae [18]): 2 µg/mL (≈ 4.2 µM); MIC (Proteus mirabilis): 16 µg/mL (≈ 33.6 µM); MIC (Enterococcus faecalis [19]): 0.25 µg/mL (≈ 0.525 µM); MIC (Enterococcus faecium [20]): 0.25 µg/mL (≈ 0.525 µM); MIC (Klebsiella pneumoniae [21]): 4 µg/mL (≈ 8.39 µM); MIC (Escherichia coli [22]): 4 µg/mL (≈ 8.39 µM); MIC (Serratia marcescens): 8 µg/mL (≈ 16.8 µM); MIC (Enterococcus faecium [23]): 0.25 µg/mL (≈ 0.525 µM); MIC (Staphylococcus aureus [24]): 0.125 µg/mL (≈ 0.262 µM); MIC (Klebsiella pneumoniae [25]): 2 µg/mL (≈ 4.2 µM); MIC (Staphylococcus aureus [26]): 0.125 µg/mL (≈ 0.262 µM); MIC [27]: 4 µg/mL (≈ 8.39 µM); MIC (Enterobacter cloacae): 4 µg/mL (≈ 8.39 µM); MIC (Escherichia coli [28]): 4 µg/mL (≈ 8.39 µM); MIC (Citrobacter freundii): 2 µg/mL (≈ 4.2 µM); MIC (Enterococcus faecalis [29]): 0.25 µg/mL (≈ 0.525 µM); MIC (Enterococcus faecalis [30]): 0.5 µg/mL (≈ 1.05 µM) |
| CN(C)C(=N)c1ccc2cc(-c3ccc4cc(-c5cc6ccc(C(=N)N(C)C)cc6[nH]5)ccc4c3)[nH]c2c1 | 6.2 (≈ 12.4 µM) | > 128 | 64 (≈ 128 µM) | > 128 | 32 (≈ 64.2 µM) | > 128 | 2 (≈ 4.01 µM) | 1 (≈ 2.01 µM) | 32 (≈ 64.2 µM) | > 128 | 128 (≈ 257 µM) | 64 (≈ 128 µM) | 2 (≈ 4.01 µM) | > 128 | 128 (≈ 257 µM) | > 128 | 32 (≈ 64.2 µM) | 2 (≈ 4.01 µM) | 2 (≈ 4.01 µM) | 32 (≈ 64.2 µM) | MIC (Klebsiella pneumoniae [18]): > 128 µg/mL; MIC (Proteus mirabilis): > 128 µg/mL; MIC (Enterococcus faecalis [19]): 32 µg/mL (≈ 64.2 µM); MIC (Enterococcus faecium [20]): 16 µg/mL (≈ 32.1 µM); MIC (Klebsiella pneumoniae [21]): > 128 µg/mL; MIC (Escherichia coli [22]): 32 µg/mL (≈ 64.2 µM); MIC (Serratia marcescens): > 128 µg/mL; MIC (Enterococcus faecium [23]): 32 µg/mL (≈ 64.2 µM); MIC (Staphylococcus aureus [24]): 2 µg/mL (≈ 4.01 µM); MIC (Klebsiella pneumoniae [25]): 128 µg/mL (≈ 257 µM); MIC (Staphylococcus aureus [26]): 2 µg/mL (≈ 4.01 µM); MIC [27]: 32 µg/mL (≈ 64.2 µM); MIC (Enterobacter cloacae): 64 µg/mL (≈ 128 µM); MIC (Escherichia coli [28]): 32 µg/mL (≈ 64.2 µM); MIC (Citrobacter freundii): 32 µg/mL (≈ 64.2 µM); MIC (Enterococcus faecalis [29]): 4 µg/mL (≈ 8.02 µM); MIC (Enterococcus faecalis [30]): 32 µg/mL (≈ 64.2 µM) |

Source: ChEMBL document CHEMBL4229379, “Synthesis and structure-activity relationship of novel bisindole amidines active against MDR Gram-positive and Gram-negative bacteria” (Eur J Med Chem, 2018)
